The target of this test is T1, CYP11A1 (Homo sapiens, UniProt P05108).
T1 construct: host or cells: NCI-H295R
T1 sequence (P05108 40-521): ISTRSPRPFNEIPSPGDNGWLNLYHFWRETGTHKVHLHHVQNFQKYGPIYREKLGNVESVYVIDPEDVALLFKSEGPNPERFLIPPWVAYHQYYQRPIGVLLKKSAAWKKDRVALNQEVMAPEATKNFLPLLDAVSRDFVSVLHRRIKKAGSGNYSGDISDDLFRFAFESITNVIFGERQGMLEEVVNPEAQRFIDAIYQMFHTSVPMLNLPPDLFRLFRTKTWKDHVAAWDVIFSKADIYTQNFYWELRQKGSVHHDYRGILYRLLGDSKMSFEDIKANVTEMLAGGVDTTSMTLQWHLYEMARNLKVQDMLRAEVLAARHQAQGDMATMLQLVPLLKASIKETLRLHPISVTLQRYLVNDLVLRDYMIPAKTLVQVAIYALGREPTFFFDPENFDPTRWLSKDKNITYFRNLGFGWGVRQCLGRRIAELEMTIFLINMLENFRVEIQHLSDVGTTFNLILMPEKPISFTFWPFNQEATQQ
In words: NCI-H295R cellular pregnenolone biosynthesis inhibition assay (ELISA method). The class given is cell-based. The conditions noted are these: 3 days incubation, pregnenolone in cell supernatant by ELISA. As to the method:
The experiment aims to test the inhibitory effect of the compounds of the present disclosure on cellular pregnenolone biosynthesis, and to assess the inhibitory effect of the compounds on CYP11A1 target based on their IC50 values.
NCI-H295R cells (MINGZHOUBIO, MZ-2138) cultured in NCI-H295R complete medium (MINGZHOUBIO, MCM-0399).
Using culture medium, NCI-H295R cells were seeded into a new 384-well cell culture plate (Greiner, 781091) at a density of 5,000 cells per well, with 45µL of cell suspension per well. The test compounds were prepared by adding 5µL of compound solution at 10× concentration to each well, to a maximum final concentration of 10µM, followed by 3× serial dilution for 10 points, with a final DMSO concentration of 0.1%, centrifuging at 1,000 rpm for 1 minute at room temperature, and then incubating in a 5% CO2 cell incubator at 37°C for 3 days.
Pregnenolone ELISA kit (Abnova, KA1912) was used for detecting the content of pregnenolone in the supernatant of cell culture. Before detection, the reagents were allowed to come back to room temperature for 1 hour. After taking out the 384-well plate, the cellular supernatant was pipetted and subjected to 5× dilution with the Assay Buffer provided in the kit. A working solution of competitive molecule and a washing solution in accordance with the instructions was prepared. 50µL of diluted cellular supernatant were pipetted into the 96-well plate provided in the ELISA kit, added with 100µL of working solution of competitive molecule per well and the plate was incubated at room temperature for 1.5 hours. After discarding the liquid, the plate was washed with 300µL of washing solution per well three times and dried. After adding 150 µL of substrate chromogenic solution per well, the plate was incubated at room temperature for 10-15 minutes. After adding 50 µL of termination solution per well, the plate was incubated at room temperature for 10-15 minutes and read for absorbance at 450nm with Envision HTS Multilabel Reader.
The wells added with 1µM ODM-208 were defined as 100% inhibition (positive control), the wells containing DMSO at a final concentration of 0.1% were defined as 0% inhibition (negative control), and inhibitory ratio = (absorbance of tested sample - average absorbance of negative control)/(average absorbance of positive control - average absorbance of negative control)*100%. The data were subjected to four-parameter fitting using GraphPad Prism to calculate the IC50 values of the compounds.

Setting [1] is: NCI-H295R cells, read-out: IC50.

Read-outs that look alike come from different tables or passages of the source. A value given as a limit tells only on which side of the number the result lay.

On to `Cn1cc(OCC2CCN(S(C)(=O)=O)CC2)c(=O)cc1CN1Cc2ccccc2C1` [compound 1], for which the IC50 (in general, the concentration needed to halve the response being measured) under setting [1] is more than 300 nM. For `COc1cc(CN2Cc3ccccc3C2)ncc1OCC1CCN(S(C)(=O)=O)CC1` [compound 2], the IC50 under setting [1] is more than 300 nM.

As for `COc1nc(CN2Cc3ccccc3C2)ccc1OCC1CCN(S(C)(=O)=O)CC1` [compound 4], under setting [1], the IC50 lay in the range of 100 to 300 nM. Regarding `CS(=O)(=O)N1CCC(CCn2ccc(CN3Cc4ccccc4C3)cc2=O)CC1` [compound 5], the IC50 under setting [1] was more than 300 nM. Regarding `CS(=O)(=O)N1CCC(CCOc2cc(CN3Cc4ccccc4C3)ccn2)CC1` [compound 6], the IC50 under setting [1] was more than 300 nM.

For `CS(=O)(=O)N1CCC(COc2ccc(CN3Cc4ccccc4C3)cn2)CC1` [compound 7], the IC50 under setting [1] is more than 300 nM. Regarding `CS(=O)(=O)N1CCC(COc2ccc(CN3Cc4ccccc4C3)nc2)CC1` [compound 8], the IC50 under setting [1] is more than 300 nM. Same read-out and setting: then `CS(=O)(=O)N1CCC(COc2cnc(CN3Cc4ccccc4C3)cn2)CC1` [compound 9], with more than 300 nM. With `CS(=O)(=O)N1CCC(COc2ccc(CN3Cc4ccccc4C3)cc2)CC1` [compound 10], the IC50 under setting [1] was less than 100 nM. Take `Cc1cc(CN2Cc3ccccc3C2)ccc1OCC1CCN(S(C)(=O)=O)CC1` [compound 11]: under setting [1], the IC50 is less than 100 nM. Still for that read-out and setting: then `CCC(C)Oc1cc(CN2Cc3ccccc3C2)c(F)cc1OCC1CCN(S(C)(=O)=O)CC1` (stereo not shown) [compound 12], with less than 100 nM; and `CCc1cc(CN2Cc3ccccc3C2)ccc1OCC1CCN(S(C)(=O)=O)CC1` [compound 13], with less than 100 nM. Take `CC(C)c1cc(CN2Cc3ccccc3C2)ccc1OCC1CCN(S(C)(=O)=O)CC1` [compound 14]: the IC50 under setting [1] is less than 100 nM. For `CS(=O)(=O)N1CCC(COc2ccc(CN3Cc4ccccc4C3)cc2F)CC1` [compound 15], the 50% inhibitory concentration (IC50) under setting [1] is less than 100 nM. On to `CS(=O)(=O)N1CCC(COc2ccc(CN3Cc4ccccc4C3)cc2Cl)CC1` [compound 16], for which, under setting [1], the IC50 was less than 100 nM. Take `CS(=O)(=O)N1CCC(COc2ccc(CN3Cc4ccccc4C3)cc2Br)CC1` [compound 17]: the IC50 under setting [1] is less than 100 nM. Regarding `CS(=O)(=O)N1CCC(COc2ccc(CN3Cc4ccccc4C3)cc2O)CC1` [compound 18], the IC50 under setting [1] is less than 100 nM. On the same count and under the same terms, in the case of `COc1cc(CN2Cc3ccccc3C2)ccc1OCC1CCN(S(C)(=O)=O)CC1` [compound 19] it was 100 to 300 nM. Still for that read-out and setting: in the case of `CS(=O)(=O)N1CCC(COc2ccc(CN3Cc4ccccc4C3)cc2OC(F)(F)F)CC1` [compound 20] it was 100 to 300 nM; in that of `CC(C)Oc1cc(CN2Cc3ccccc3C2)ccc1OCC1CCN(S(C)(=O)=O)CC1` [compound 21], less than 100 nM. As to `COc1cc(CN2Cc3ccccc3C2)c(F)cc1OCC1CCN(S(C)(=O)=O)CC1` [compound 22], under setting [1], the IC50 was less than 100 nM.

On to `COc1cc(OCC2CCN(S(C)(=O)=O)CC2)c(F)cc1CN1Cc2ccccc2C1` [compound 23], for which the IC50 under setting [1] is more than 300 nM. As to `CNC(=O)c1cc(CN2Cc3ccccc3C2)ccc1OCC1CCN(S(C)(=O)=O)CC1` [compound 24], the 50% inhibitory concentration (IC50) under setting [1] is more than 300 nM. Regarding `CS(=O)(=O)N1CCC(COc2cc(F)c(CN3Cc4ccccc4C3)cc2Br)CC1` [compound 25], the half-maximal inhibitory concentration (IC50) under setting [1] is less than 100 nM.

With `C=Cc1cc(CN2Cc3ccccc3C2)ccc1OCC1CCN(S(C)(=O)=O)CC1` [compound 26], under setting [1], the half-maximal inhibitory concentration (IC50) is less than 100 nM. For `C=C(C)c1cc(CN2Cc3ccccc3C2)ccc1OCC1CCN(S(C)(=O)=O)CC1` [compound 27], the IC50 under setting [1] fell in the range of 100 to 300 nM. Consider `C=C(C)c1cc(CN2Cc3ccccc3C2)c(F)cc1OCC1CCN(S(C)(=O)=O)CC1` [compound 28], for which, under setting [1], the half-inhibitory concentration (IC50) was less than 100 nM. As for `C=CCOc1cc(CN2Cc3ccccc3C2)ccc1OCC1CCN(S(C)(=O)=O)CC1` [compound 29], the concentration for half-maximal inhibition (IC50) under setting [1] is less than 100 nM. The compound `CS(=O)(=O)N1CCC(COc2cc(F)c(CN3Cc4ccccc4C3)cc2C#N)CC1` [compound 30] registered an IC50 (IC50, NCI-H295R cells) of less than 100 nM.

For `CC(C)c1cc(CN2Cc3ccccc3C2)c(F)cc1OCC1CCN(S(C)(=O)=O)CC1` [compound 31], the IC50 under setting [1] is more than 300 nM.

As to `CS(=O)(=O)N1CCC(COc2cc(F)c(CN3Cc4ccccc4C3)cc2F)CC1` [compound 32], under setting [1], the IC50 was less than 100 nM. For the compound `CSc1cc(CN2Cc3ccccc3C2)c(F)cc1OCC1CCN(S(C)(=O)=O)CC1` [compound 33], under setting [1], the IC50 is less than 100 nM. For the compound `CS(=O)(=O)N1CCC(COc2c(F)cc(CN3Cc4ccccc4C3)cc2Br)CC1` [compound 34], under setting [1], the IC50 was less than 100 nM.

Turning to `Cc1cc(CN2Cc3ccccc3C2)cc(F)c1OCC1CCN(S(C)(=O)=O)CC1` [compound 35], under setting [1], the IC50 lay in the range of 100 to 300 nM. For `CS(=O)(=O)N1CCC(COc2ccc(CN3Cc4ccccc4C3)cc2-c2ccco2)CC1` [compound 36], the IC50 under setting [1] is more than 300 nM. For `CS(=O)(=O)N1CCC(COc2ccc(CN3Cc4ccccc4C3)cc2-c2ncco2)CC1` [compound 37], the IC50 under setting [1] lay within 100 to 300 nM. On to `CS(=O)(=O)N1CCC(COc2ccc(CN3Cc4ccccc4C3)cc2-c2nccs2)CC1` [compound 38], for which the concentration for half-maximal inhibition (IC50) under setting [1] is more than 300 nM. In the case of `CS(=O)(=O)N1CCC(CCc2ccc(CN3Cc4ccccc4C3)cc2F)CC1` [compound 40], the IC50 under setting [1] is less than 100 nM. For `COc1cc(CN2Cc3ccccc3C2)c(F)cc1CCC1CCN(S(C)(=O)=O)CC1` [compound 41], under setting [1], the IC50 was 100 to 300 nM. Consider `COc1cc(CN2Cc3ccccc3C2)ccc1COC1CCN(S(C)(=O)=O)CC1` [compound 42], for which the half-maximal inhibitory concentration (IC50) under setting [1] is more than 300 nM. Still for that read-out and setting: then `CS(=O)(=O)N1CCC(CSc2ccc(CN3Cc4ccccc4C3)cc2F)CC1` [compound 43], with 100 to 300 nM; and `COc1cc(CN2Cc3ccccc3C2)ccc1/C=C/C1CCN(S(C)(=O)=O)CC1` [compound 44], with less than 100 nM. Consider `COc1cc(CN2Cc3ccccc3C2)ccc1Oc1cccc2c1CCN(S(C)(=O)=O)C2` [compound 45], for which the IC50 under setting [1] was more than 300 nM. Regarding `CC(C)(C)OC(=O)N1CCC(COc2cc(F)c(CN3Cc4ccccc4C3)cc2Br)CC1` [compound 46], the 50% inhibitory concentration (IC50) under setting [1] is less than 100 nM. Still for that read-out and setting: then `CC(=O)N1CCN(c2cccc(Oc3ccc(CN4Cc5ccccc5C4)cc3F)c2)CC1` [compound 47], with more than 300 nM; and `COc1cc(CN2Cc3ccccc3C2)ccc1CCN1CCN(S(C)(=O)=O)CC1` [compound 48], with 100 to 300 nM. The same measure, in the same setting: then `CC(=O)N1CCC(CCSc2ccc(CN3Cc4ccccc4C3)cc2F)CC1` [compound 49], with less than 100 nM; and `COc1cc(CN2Cc3ccccc3C2)ccc1C=CC1CCN(C(=O)OC(C)(C)C)CC1` [compound 50], with less than 100 nM; and `CC(C)(C)OC(=O)N1CCC2(CCN(c3ccc(CN4Cc5ccccc5C4)cc3F)CC2)C1` [compound 51], with more than 300 nM.

For `CS(=O)(=O)N1CCC(COc2cc(F)c(CN3Cc4ccccc4C3)cc2O)CC1` [compound 52], under setting [1], the IC50 was less than 100 nM. Turning to `CS(=O)(=O)N1CCC(CCc2ccc(CN3Cc4ccccc4C3)cc2C#N)CC1` [compound 54], the IC50 under setting [1] was less than 100 nM. Regarding `OCCN1CCC(COc2cc(F)c(CN3Cc4ccccc4C3)cc2Br)CC1` [compound 55], under setting [1], the IC50 is more than 300 nM. Turning to `Fc1cc(OCC2CCNCC2)c(Br)cc1CN1Cc2ccccc2C1` [compound 56], under setting [1], the IC50 is more than 300 nM.

With `CS(=O)(=O)N1CCC(CN2CCOc3cc(CN4Cc5ccccc5C4)ccc32)CC1` [compound 57], the half-inhibitory concentration (IC50) under setting [1] was more than 300 nM. In the case of `CS(=O)(=O)N1CCC2(CCN(c3ccc(CN4Cc5ccccc5C4)cc3F)CC2)C1` [compound 58], the concentration for half-maximal inhibition (IC50) under setting [1] was more than 300 nM.

The values above are taken from patent publication EP4775570A1, “CYP11A1 INHIBITOR, PREPARATION METHOD THEREFOR AND USE THEREOF” (Shenzhen Zhongge Biological Technology Co., Ltd., priority 2023, dated 2025).
